The structures appear in SMILES notation.

Assay [1] deals with Vascular endothelial growth factor receptor 2 (Homo sapiens, UniProt P35968). Kind of assay: Inhibition of VEGFR2 by HTRF assay. On the technique in general: TR-FRET usually uses a lanthanide donor and a delayed reading to cut background.
For assay [2], the target named is Hepatocyte growth factor receptor (Homo sapiens) (UniProt P08581). Kind of assay: Inhibition of c-Met at 10 uM.
The target of assay [3] is Insulin-like growth factor 1 receptor (Homo sapiens) (UniProt P08069). Kind of assay: Inhibition of IGF1R at 10 uM.
Assay [4] concerns the target Receptor-type tyrosine-protein kinase FLT3 (Homo sapiens) (UniProt P36888). Put plainly: Inhibition of FLT3 at 10 uM.
Assay [5] has as its target Insulin receptor (Homo sapiens) (UniProt P06213). Put plainly: Inhibition of InsR at 10 uM.
Assay [6] deals with Epidermal growth factor receptor (Homo sapiens) (UniProt P00533). The note with it: 10 uM.
Chain of Epidermal growth factor receptor (Homo sapiens) (P00533 whole entry): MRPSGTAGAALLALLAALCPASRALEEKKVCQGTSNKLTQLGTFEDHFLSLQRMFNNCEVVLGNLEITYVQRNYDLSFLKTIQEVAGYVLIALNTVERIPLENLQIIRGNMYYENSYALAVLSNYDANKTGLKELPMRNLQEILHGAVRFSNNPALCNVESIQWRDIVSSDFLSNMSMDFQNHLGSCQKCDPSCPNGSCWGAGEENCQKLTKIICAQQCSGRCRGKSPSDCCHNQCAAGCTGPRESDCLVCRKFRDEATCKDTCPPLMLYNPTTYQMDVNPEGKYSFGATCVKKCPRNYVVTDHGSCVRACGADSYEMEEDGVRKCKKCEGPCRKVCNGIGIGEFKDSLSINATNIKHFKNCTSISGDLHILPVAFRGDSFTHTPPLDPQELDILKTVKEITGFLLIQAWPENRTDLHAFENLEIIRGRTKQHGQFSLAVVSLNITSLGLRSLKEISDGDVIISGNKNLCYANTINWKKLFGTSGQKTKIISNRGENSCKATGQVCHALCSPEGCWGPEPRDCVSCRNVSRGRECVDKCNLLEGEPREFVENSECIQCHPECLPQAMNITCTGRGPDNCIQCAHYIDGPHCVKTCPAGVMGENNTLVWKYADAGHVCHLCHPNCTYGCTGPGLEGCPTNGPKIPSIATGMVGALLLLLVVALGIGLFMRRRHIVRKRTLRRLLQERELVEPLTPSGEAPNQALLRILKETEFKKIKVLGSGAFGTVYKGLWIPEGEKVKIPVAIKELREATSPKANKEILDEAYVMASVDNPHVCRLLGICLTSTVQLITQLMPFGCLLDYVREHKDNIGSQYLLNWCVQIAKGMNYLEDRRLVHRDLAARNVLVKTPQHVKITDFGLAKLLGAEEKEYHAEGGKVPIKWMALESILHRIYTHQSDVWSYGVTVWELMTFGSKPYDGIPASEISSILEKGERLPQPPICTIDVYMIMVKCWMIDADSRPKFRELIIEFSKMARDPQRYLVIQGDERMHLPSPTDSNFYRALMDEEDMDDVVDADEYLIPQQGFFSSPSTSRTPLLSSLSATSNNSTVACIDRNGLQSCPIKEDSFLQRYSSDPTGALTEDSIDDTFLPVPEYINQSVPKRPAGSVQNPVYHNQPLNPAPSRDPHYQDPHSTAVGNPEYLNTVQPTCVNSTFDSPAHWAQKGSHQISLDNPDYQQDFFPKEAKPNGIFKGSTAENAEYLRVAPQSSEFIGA
Description: Inhibition of EGFR at 10 uM

Chain of Vascular endothelial growth factor receptor 2 (P35968 whole entry): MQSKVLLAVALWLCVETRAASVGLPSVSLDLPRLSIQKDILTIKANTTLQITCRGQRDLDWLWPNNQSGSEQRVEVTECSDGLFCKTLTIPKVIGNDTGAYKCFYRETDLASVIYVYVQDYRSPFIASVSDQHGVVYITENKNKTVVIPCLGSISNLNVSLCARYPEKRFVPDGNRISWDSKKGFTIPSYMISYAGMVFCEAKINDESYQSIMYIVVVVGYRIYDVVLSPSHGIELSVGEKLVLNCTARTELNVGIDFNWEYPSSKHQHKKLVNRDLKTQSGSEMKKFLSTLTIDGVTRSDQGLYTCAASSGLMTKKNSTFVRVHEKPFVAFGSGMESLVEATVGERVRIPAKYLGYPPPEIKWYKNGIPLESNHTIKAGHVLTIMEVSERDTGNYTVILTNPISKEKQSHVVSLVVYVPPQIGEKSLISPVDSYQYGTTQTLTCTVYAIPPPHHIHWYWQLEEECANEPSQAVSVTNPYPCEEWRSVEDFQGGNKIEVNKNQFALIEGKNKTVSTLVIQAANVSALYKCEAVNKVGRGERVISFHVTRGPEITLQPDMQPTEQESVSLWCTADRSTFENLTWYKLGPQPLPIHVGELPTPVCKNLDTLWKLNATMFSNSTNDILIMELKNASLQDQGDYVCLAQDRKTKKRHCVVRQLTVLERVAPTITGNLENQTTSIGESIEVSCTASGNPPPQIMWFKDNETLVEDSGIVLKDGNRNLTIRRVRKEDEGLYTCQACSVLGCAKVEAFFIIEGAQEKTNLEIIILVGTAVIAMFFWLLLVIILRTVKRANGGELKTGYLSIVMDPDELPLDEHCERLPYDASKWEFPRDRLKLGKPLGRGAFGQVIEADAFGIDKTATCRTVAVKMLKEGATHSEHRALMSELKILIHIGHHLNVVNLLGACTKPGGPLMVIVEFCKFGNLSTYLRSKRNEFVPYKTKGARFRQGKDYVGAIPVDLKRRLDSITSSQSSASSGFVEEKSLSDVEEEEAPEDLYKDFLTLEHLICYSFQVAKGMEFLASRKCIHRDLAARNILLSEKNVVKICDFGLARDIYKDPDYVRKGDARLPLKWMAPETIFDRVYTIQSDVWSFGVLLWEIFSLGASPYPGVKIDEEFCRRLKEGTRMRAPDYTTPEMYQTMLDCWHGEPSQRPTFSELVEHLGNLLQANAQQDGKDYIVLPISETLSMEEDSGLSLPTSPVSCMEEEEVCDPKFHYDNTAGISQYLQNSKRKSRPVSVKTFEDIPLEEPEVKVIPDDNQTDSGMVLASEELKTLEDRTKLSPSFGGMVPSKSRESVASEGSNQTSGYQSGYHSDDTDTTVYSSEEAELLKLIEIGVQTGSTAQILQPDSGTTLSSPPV
Chain of Insulin-like growth factor 1 receptor (Homo sapiens) (P08069 31-736 limits assumed): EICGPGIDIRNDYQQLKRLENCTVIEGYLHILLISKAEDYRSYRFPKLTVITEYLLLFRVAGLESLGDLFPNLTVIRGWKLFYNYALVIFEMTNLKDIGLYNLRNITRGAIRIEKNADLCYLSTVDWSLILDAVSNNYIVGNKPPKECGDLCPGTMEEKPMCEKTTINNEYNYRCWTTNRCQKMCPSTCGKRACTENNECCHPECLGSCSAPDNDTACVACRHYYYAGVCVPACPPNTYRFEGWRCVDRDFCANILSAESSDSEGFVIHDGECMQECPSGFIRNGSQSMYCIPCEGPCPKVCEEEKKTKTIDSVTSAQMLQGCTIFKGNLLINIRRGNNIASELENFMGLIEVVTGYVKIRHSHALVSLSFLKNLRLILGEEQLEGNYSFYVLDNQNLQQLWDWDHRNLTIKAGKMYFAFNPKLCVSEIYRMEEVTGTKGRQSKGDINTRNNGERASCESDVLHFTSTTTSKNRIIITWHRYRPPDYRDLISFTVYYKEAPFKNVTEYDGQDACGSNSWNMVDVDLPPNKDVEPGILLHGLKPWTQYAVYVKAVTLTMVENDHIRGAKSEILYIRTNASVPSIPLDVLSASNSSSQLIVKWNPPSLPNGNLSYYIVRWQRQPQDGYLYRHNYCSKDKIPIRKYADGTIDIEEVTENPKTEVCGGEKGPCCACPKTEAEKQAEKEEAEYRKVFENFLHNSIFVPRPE
Chain of Insulin-like growth factor 1 receptor (Homo sapiens) (P08069 741-1367 limits assumed): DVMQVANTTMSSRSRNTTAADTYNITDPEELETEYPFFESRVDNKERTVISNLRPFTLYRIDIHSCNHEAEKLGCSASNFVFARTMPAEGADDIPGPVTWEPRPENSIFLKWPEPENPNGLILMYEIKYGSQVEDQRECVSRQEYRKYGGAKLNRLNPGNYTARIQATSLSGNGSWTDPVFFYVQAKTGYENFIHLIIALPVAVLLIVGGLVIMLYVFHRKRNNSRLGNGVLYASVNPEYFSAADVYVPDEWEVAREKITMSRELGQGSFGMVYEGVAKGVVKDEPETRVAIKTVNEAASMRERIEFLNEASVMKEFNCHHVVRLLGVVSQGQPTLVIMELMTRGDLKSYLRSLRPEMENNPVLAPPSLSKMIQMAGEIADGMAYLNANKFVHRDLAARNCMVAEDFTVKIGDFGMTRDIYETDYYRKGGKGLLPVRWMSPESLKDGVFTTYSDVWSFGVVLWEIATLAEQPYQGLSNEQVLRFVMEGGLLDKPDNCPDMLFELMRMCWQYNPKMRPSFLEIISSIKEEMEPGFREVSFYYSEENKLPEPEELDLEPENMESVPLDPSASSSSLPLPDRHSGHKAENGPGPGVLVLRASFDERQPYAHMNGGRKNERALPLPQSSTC
Chain of Receptor-type tyrosine-protein kinase FLT3 (Homo sapiens) (P36888 whole entry): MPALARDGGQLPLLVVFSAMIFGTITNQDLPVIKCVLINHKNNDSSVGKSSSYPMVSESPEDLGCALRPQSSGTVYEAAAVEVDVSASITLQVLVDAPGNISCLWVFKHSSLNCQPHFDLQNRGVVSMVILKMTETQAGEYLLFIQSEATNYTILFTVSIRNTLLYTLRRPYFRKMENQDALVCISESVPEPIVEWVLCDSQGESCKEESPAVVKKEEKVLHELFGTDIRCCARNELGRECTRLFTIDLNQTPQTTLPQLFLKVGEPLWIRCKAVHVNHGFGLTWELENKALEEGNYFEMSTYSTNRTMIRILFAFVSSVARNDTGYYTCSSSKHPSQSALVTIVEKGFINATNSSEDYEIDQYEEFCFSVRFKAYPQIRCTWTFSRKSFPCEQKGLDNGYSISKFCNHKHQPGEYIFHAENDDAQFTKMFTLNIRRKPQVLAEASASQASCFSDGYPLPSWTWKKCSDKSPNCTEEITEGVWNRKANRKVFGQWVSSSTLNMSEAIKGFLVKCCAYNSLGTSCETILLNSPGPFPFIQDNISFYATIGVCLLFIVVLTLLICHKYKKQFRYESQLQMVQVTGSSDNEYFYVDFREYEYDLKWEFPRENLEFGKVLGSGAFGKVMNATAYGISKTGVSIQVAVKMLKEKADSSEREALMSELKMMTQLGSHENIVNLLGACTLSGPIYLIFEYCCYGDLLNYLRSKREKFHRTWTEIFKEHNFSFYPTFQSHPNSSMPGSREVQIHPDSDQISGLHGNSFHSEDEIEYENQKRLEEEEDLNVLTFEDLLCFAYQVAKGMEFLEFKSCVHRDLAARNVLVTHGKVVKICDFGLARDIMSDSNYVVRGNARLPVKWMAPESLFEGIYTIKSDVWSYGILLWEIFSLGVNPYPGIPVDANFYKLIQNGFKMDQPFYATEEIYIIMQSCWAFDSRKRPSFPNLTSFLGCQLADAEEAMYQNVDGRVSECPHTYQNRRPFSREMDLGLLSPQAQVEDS

What is called IC50 is the concentration needed to halve the response being measured. For `Clc1ccc(Nc2nnc(-c3cn[nH]c3)c3ccccc23)cc1`, the half-maximal inhibitory concentration (IC50) in assay [1] was > 10 µM.
Broadly, the inhibition is the share of the control response that was lost under treatment. In the case of `Clc1ccc(Nc2nnc(-c3cccc4cnccc34)c3ccccc23)cc1`, the inhibition in assay [2] is 2%; in assay [3], 25%; in assay [4], 33%; in assay [5] it was 10%; in assay [6], 13%. The compound further gave an IC50 in assay [1] of 0.048 µM.
In the case of `Cn1cc(-c2nnc(Nc3ccc(Cl)cc3)c3ccccc23)cn1`, in assay [1], the IC50 is > 10 µM.

For the origin of these results see ChEMBL document CHEMBL1146055, “Arylphthalazines. Part 2: 1-(Isoquinolin-5-yl)-4-arylamino phthalazines as potent inhibitors of VEGF receptors I and II” (Bioorg Med Chem Lett, 2006).
